Source: patent US10441568B2, “Nitroxide radicals for the treatment of diseases of the respiratory tract” (priority 2015, dated 2019)

Key:
[1] = test system: IFN-γ; assay: IFN-γ level in OVA asthma model; type: in vivo, BALB/c mice; conditions: for IFN-γ level: lung tissue (table title)
Experimental: (§1) All experimental procedures were carried out in accordance with the NIH Guidelines for the Care and Use of Laboratory Animals. Specific pathogen-free (SPF) male BALB/c mice (6-7 weeks of age, 18-22 grams), routinely screened serologically for relevant respiratory pathogens, were maintained in an animal housing facility for 1 week before use and given access to food and water ad libitum. Animals were randomly assigned to the indicated experimental groups, and sensitized with two intraperitoneal (IP) injections (20 μg ovalbumin (OVA) emulsified in 2 mg aluminum hydroxide (an adjuvant) in 200 μl phosphate buffer saline (PBS), pH 7.4), on days 1 and 10.
(§2) After another week, the animals were challenged by exposure to ovalbumin (OVA) aerosol (1%, w/v, in PBS) for 30 minutes each day on days 17, 18 and 19, in order to elicit an inflammatory reaction in the lungs characterized by airway hyper-responsiveness (AHR), an influx of inflammatory cells (particularly eosinophils), and increased pulmonary levels of various cytokines and transforming growth factors, protein nitration and lipid peroxidation.
(§3) Bronchoalveolar lavage (BAL) fluid (also referred to herein as “BALf”) and bronchial submucosal inflammation are characteristic features of asthma. Mice were euthanized with an overdose of 50 mg/kg pentobarbital and ice-cold phosphate buffer saline (PBS) (0.6 ml) was instilled into the lungs. BAL fluid was obtained by three aspirations via tracheal cannulation, centrifuged, and the supernatant collected and stored at −70° C. Cell pellets were re-suspended in PBS and 100 μl aliquots placed onto slides and centrifuged (200 g, 4° C., 10 minutes) in a cytospin machine. Induction of oxidative stress was evaluated using a 2′,7′-dichlorofluorescein fluorescence assay, and total IgE, IgG2a, panel of cytokines, transforming growth factors, collagen, protein nitration and lipid peroxidation were measured using commercial kits according to the manufacturer's recommendations. A Sircol™ collagen assay kit was obtained from Biocolor Life Sciences Assays, a protein nitration assay kit was obtained from Abcam, and other assay kits were obtained from PeproTech Asia.
(§4) The efficacy of oral administration of 3-CP (1 weight percent in chow) during the sensitization period and/or challenge period was then compared to IP injection (˜300 mg/kg, 0.5 hour before the OVA challenge) or intranasal instillation (˜150 mg/kg, 0.5 hour before the OVA and 6 hours later) of 3-CP, as well as to dexamethasone treatment (1 mg/kg, 3 daily IP injections, 0.5 hour prior to the challenge with OVA aerosol).
(§5) In order to assess the effect of 3-CP on inflammatory signaling pathways, […] to procedures described hereinabove, upon oral, intranasal or IP administration of 3-CP.

[2] = test system: TGF-β1; assay: TGF-β1 level in OVA asthma model; type: in vivo, BALB/c mice
Experimental: as §1, §2, §3, §4, §5

[3] = test system: IL-5; assay: IL-5 level in OVA asthma model; type: in vivo, BALB/c mice; conditions: for IL-5 level: lung tissue (table title)
Experimental: as §1, §2, §3, §4, §5

[4] = test system: mucin production; assay: Mucin production by PAS staining of lung tissue, OVA asthma model; type: in vivo, mice
Experimental: Following aspiration of BAL as described hereinabove, a thoracotomy was performed, and the right main bronchus was tied. The left lung was fixed by means of intrabronchial infusion with 1 ml of 4% formaldehyde, and then immersed in fixative (10% (v/v) neutral buffered formalin) for 24 hours at 4° C. Transverse sections of the left lung were embedded in paraffin, and […] sections were stained with hematoxylin and eosin (H&E) by Hadassah Hospital Pathology Service (Jerusalem, Israel). In addition, periodic acid-Schiff (PAS) staining was performed on lung tissue, and the degree of mucin production was measured from PAS staining.
In order to evaluate the effect of 3-CP on lung pathology, animals in an ovalbumin-induced asthma model were treated with 3-CP, and killed by abdominal aortic transaction and exsanguination, according to procedures described hereinabove. Lung tissue was examined by hematoxylin and eosin (H&E) staining, the degree of mucin production was determined from periodic-acid-Schiff (PAS) staining.

[5] = test system: mice with OVA-induced chronic asthma; assay: Inflammatory cell counts in BAL fluid, severe (chronic) asthma model; type: in vivo
Experimental: In a longer (chronic) murine model, mice were challenged 3 times a week for 4-5 weeks.
Bronchoalveolar lavage (BAL) fluid (also referred to herein as “BALf”) and bronchial submucosal inflammation are characteristic features of asthma. Mice were euthanized with an overdose of 50 mg/kg pentobarbital and ice-cold phosphate buffer saline (PBS) (0.6 ml) was instilled into the lungs. BAL fluid was obtained by three aspirations via tracheal cannulation, centrifuged, and the supernatant collected and stored at −70° C. Cell pellets were re-suspended in PBS and 100 μl aliquots placed onto slides and centrifuged (200 g, 4° C., 10 minutes) in a cytospin machine. Induction of oxidative stress was evaluated using a 2′,7′-dichlorofluorescein fluorescence assay, and total IgE, IgG2a, panel of cytokines, transforming growth factors, collagen, protein nitration and lipid peroxidation were measured using commercial kits according to the manufacturer's recommendations. […]
3-CP was administered orally (1 weight percent in chow) during the entire experiment, and dexamethasone (Dex) was administered via IP injection (1 mg/kg) one hour before each challenge. Inflammatory cell counts and pulmonary collagen content were then evaluated according to procedures described hereinabove, in order to assess effects on inflammation and remodeling, respectively.

[6] = previously established; cited from earlier work
[7] = Toxicity / maximally tolerated dose in mice; type: in vivo; conditions: administered orally or via IP injection to untreated OVA-challenged mice for 22 days
Experimental: 3-CP was also administered using 3 daily intraperitoneal (IP) injections (200 μl, 0.15 M, ˜300 mg/kg) 0.5 hour prior to the challenge with OVA aerosol, or by nasal instillation (50 μl, 0.3 M, ˜150 mg/kg) twice a day 0.5 hour prior to the challenge with OVA aerosol and 6 hours later without exceeding its maximally tolerated dose, which has been previously established to be 300-500 mg/kg. Both 3-CP and TPL were non-toxic when administered orally or via IP injection to untreated OVA-challenged mice for 22 days.

[8] = test system: bleomycin-induced pulmonary fibrosis; assay: Inflammatory cell counts in BAL fluid, bleomycin pulmonary fibrosis model; type: in vivo, mice; conditions: 3-CP 150 mg/kg daily intranasal, 14 days, FIG. 18
Experimental: Bronchoalveolar lavage (BAL) fluid (also referred to herein as “BALf”) and bronchial submucosal inflammation are characteristic features of asthma. Mice were euthanized with an overdose of 50 mg/kg pentobarbital and ice-cold phosphate buffer saline (PBS) (0.6 ml) was instilled into the lungs. BAL fluid was obtained by three aspirations via tracheal cannulation, centrifuged, and the supernatant collected and stored at −70° C. Cell pellets were re-suspended in PBS and 100 μl aliquots placed onto slides and centrifuged (200 g, 4° C., 10 minutes) in a cytospin machine. Induction of oxidative stress was evaluated using a 2′,7′-dichlorofluorescein fluorescence assay, and total IgE, IgG2a, panel of cytokines, transforming growth factors, collagen, protein nitration and lipid peroxidation were measured using commercial kits according to the manufacturer's recommendations. A Sircol™ collagen assay kit was obtained from Biocolor Life Sciences Assays, a protein nitration assay kit was obtained from Abcam, and other assay kits were obtained from PeproTech Asia. […]
The effect of 3-CP on bleomycin-induced inflammation was evaluated by determining lung resistance, total inflammatory cell count, and TGF-β1 levels, according to procedures described hereinabove.

[9] = OVA IP-C: 3-CP intraperitoneal during challenge
[10] = OVA oral-C: 3-CP oral during challenge
[11] = OVA oral-S&C: 3-CP oral during sensitization and challenge
[12] = OVA oral-S: 3-CP oral during sensitization
[13] = oral administration vs IP injection

CC1(C)CC(C(N)=O)C(C)(C)N1[O] (centres unmarked) [3-CP, 3-Carbamoyl-2,2,5,5-tetramethyl-pyrrolidin-1-oxyl]
IFN-γ level [1, 9]: 5.17 ± 0.19 ng/mg | IFN-γ level [1, 10]: 5.32 ± 0.38 ng/mg | IFN-γ level [1, 11]: 5.60 ± 0.22 ng/mg | IFN-γ level [1, 12]: 3.78 ± 0.27 ng/mg | effect on OVA-induced decrease in the level of INF-γ ([1]; lung tissue, FIG. 7C and Table 1): inhibited | modulating IFN-γ level, oral compared with IP 3-CP [1, 13]: consistently more effective than IP injection of 3-CP | effect on OVA-induced increase in the level of TGF-β1 ([2]; FIG. 7E and Table 1): inhibited | reducing TGF-β1 level, oral 3-CP compared with intranasal 3-CP and IP dexamethasone ([2]; FIG. 7E and Table 1): more effective than intranasal instillation of 3-CP and IP injection of dexamethasone | TGF-β1 level [2, 9]: 0.88 ± 0.05 ng/mg | TGF-β1 level [2, 10]: 0.72 ± 0.08 ng/mg | TGF-β1 level [2, 11]: 0.73 ± 0.07 ng/mg | TGF-β1 level [2, 12]: 0.76 ± 0.02 ng/mg | modulating TGF-β1 level, oral compared with IP 3-CP [2, 13]: consistently more effective than IP injection of 3-CP | IL-5 level [3, 9]: 2.08 ng/mg | IL-5 level [3, 10]: 2.40 ng/mg | IL-5 level [3, 11]: 1.96 ng/mg | IL-5 level [3, 12]: 3.16 ng/mg | effect on OVA-induced increase in the level of IL-5 ([3]; lung tissue, FIG. 7B and Table 1): inhibited | modulating IL-5 level, oral compared with IP 3-CP [3, 13]: consistently more effective than IP injection of 3-CP | effect on mucin levels, PAS scoring ([4]; 3-CP via all tested modes of delivery, FIGS. 10 and 11): reduced the mucin levels | reducing mucin levels, 3-CP compared with dexamethasone ([4]; FIG. 10): at least as effective as dexamethasone | effect on inflammatory cell counts in BAL fluid ([5]; 3-CP oral 1 weight percent in chow during entire experiment, 4 weeks OVA challenge, FIGS. 15A and 15B): reduced inflammatory cell counts, and especially eosinophil counts | reducing BAL inflammatory cell counts, 3-CP compared with dexamethasone ([5]; 3-CP oral, dexamethasone 1 mg/kg IP before each challenge): at least as effective as dexamethasone | maximally tolerated dose [6]: 300 to 500 mg/kg | toxicity [7]: non-toxic | effect on bleomycin-induced increase in inflammatory cell counts in BAL fluid [8]: significantly reduced
